Measurements taken from patent publication US20110319274A1, “Identification of Compounds Modifying a Cellular Response” (Carlsberg A/S, priority 2004, published 2011).

System: GFP expressing U2OS cells and Hek293 cells
Experiment: Adhesion peptide screening for low fluorescence/high adherence properties (FABS, microscope)
Type: cell-based, Human
Settings: re-synthesized peptides on beads
Protocol: An adhesion D-amino peptide library was synthesized (500,000 members) as described above in Example 1 and screened for low fluorescence/high adherence properties. This was done in 4 steps:
1) Selection of low fluorescent beads by Fluorescence Activated Bead Sorting (FABS).
The 500,000 member adhesion peptide library was FABSorted and 150,000 low fluorescent beads were isolated.
2) Selection of beads with good cell adhesion properties.
The 150,000 low fluorescent beads were incubated with GFP expressing U2OS cells followed by FABS sorting for high fluorescence (high cell adhesion). 536 beads were isolated.
3) Identification and isolation of beads with high Hek293 cell adherence properties.
The 536 beads were cleared for U2OS cells and incubated with GFP expressing Hek293 cells. 47 beads with high cell adhesion properties were isolated using a fluorescence microscope.
4) Sequence elucidation and re-synthesis of selected peptides.
22 peptides were sequenced and six of them were re-synthesized. Based on Structure-Activity of the six peptides, four additional ones (AP-7 […] AP-10) were synthesized.

arg-gln-arg-ile-arg (RQRIR; Cell adhesion peptide) [SEQ IS 35]
overall performance (low fluorescence/high adherence properties): best overall performance
